Data on one molecule can be found in US12514845B2, “Ionic-liquid-based formulations for the prevention or treatment of neurological diseases” (Universidade De Aveiro, priority 2022, dated 2026).

Read-outs that look alike come from different tables or passages of the source.

In general, solubility refers to the concentration that dissolves in the medium under given conditions.

One data set addresses T1, Nox4 (Homo sapiens, UniProt Q9NPH5).
T1 construct: host or cells: drosophila
T1 sequence (Q9NPH5 1-578): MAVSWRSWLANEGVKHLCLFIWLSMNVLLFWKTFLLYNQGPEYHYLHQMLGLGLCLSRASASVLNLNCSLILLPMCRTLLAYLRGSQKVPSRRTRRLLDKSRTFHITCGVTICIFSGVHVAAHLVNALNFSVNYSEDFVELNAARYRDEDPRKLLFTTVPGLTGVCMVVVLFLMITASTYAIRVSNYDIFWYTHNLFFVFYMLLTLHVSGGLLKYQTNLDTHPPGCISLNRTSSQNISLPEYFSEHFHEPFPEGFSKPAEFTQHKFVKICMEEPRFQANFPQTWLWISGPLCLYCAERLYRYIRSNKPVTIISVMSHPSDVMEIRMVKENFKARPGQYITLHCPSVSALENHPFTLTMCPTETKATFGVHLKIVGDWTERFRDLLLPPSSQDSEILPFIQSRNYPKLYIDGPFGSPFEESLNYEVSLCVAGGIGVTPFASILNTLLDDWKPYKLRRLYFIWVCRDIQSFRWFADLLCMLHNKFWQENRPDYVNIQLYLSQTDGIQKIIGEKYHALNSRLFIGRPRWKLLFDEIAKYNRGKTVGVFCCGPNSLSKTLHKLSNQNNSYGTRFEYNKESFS
Conditions: Bae et al. 2016; cited from earlier work.

The target of a further data set is T2, Nox1 (Homo sapiens, UniProt Q9Y5S8).
T2 construct: host or cells: drosophila
T2 sequence (Q9Y5S8 1-564): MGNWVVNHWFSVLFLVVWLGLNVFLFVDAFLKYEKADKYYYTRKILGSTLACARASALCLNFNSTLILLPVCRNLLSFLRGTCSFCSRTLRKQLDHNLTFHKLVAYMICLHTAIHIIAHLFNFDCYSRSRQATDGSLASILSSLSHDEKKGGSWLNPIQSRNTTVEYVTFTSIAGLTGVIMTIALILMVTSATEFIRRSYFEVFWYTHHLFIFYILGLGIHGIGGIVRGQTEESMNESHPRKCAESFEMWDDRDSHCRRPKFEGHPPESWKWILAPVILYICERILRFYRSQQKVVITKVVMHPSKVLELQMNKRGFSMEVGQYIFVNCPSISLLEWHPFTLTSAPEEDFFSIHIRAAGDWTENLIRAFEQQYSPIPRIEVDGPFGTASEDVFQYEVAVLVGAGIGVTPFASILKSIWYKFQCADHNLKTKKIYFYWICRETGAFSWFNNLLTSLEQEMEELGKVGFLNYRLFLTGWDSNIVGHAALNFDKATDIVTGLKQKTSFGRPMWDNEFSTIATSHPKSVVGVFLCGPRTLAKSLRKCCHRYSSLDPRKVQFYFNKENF
Conditions: Bae et al. 2016; cited from earlier work.

Data set [1] is described as follows: Decomposition temperature by thermogravimetric analysis (TGA). The data set is classed as physicochemical. Conditions: TGA (FIG. 5). The protocol:
In an embodiment, the decomposition temperature of [Chol]2[N1(4)inh]+N1(4)inh was evaluated by thermogravimetric analysis (TGA) and the results disclose that the mixture is thermally stable up to 200° C., as disclosed in FIG. 5.
In an embodiment, the decomposition temperature was determined by thermogravimetric analysis (TGA).

The subject of the next data set is dopaminergic neurons. The following applies: experimental models of PD; Cristóvão et al. 2019; cited from earlier work.
A short description of data set [2]: Solubility in water and PBS (saturation, UV-spectroscopy). The following applies: thermodynamic from solid, 37° C., minimum 72 h. Type of data set: physicochemical. The method, then: In an embodiment, the solutes N1(4)inh and mixture comprising [Chol]2[N1(4)inh]+N1(4)inh were added in excess to a fixed volume (500 μL) of water and PBS solution. These mixtures were incubated at 37° C., under constant agitation 1150 rpm and for a minimum of 72 h, using an Eppendorf Thermomixer Comfort equipment. Throughout this process, solute was added to the mixture, whenever necessary, i.e., until the solution saturation. All samples were filtered using syringe filters ([…]) to remove possible suspended solid particles.
In an embodiment, the quantification of N1(4)inh and [Chol]2[N1(4)inh] was carried by UV-spectroscopy, using a UV-spectrophotometry (SYNERGY|HT microplate reader, BioTek) at a wavelength of 416 nm and 480 nm, respectively. The interference of the PBS with the quantification method was also ascertained and blank control samples were always used.
In an embodiment, solutes (N1(4)inh and [Chol]2[N1(4)inh]+N1(4)inh) were added in excess to a fixed volume (500 μL) of water and PBS solution. […] The quantification of N1(4)inh and [Chol]2[N1(4)inh]+N1(4)inh was carried by UV-spectroscopy, using a UV-spectrophotometry (SYNERGY|HT microplate reader, BioTek) at a wavelength of 416 nm and 480 nm, respectively. The interference of the PBS with the quantification method was also ascertained and blank control samples were always used.

As to `CN1C(=S)N(C2CCCCC2)C(=O)C1=Cc1ccc(O)cc1O` [N1(4)inh, 3-cyclohexyl-5-(2,4-dihydroxybenzylidene)-1-methyl-2-thiohydantoin], the “inhibition of Nox4” value on Nox4 is reported as “partial inhibitor”. For the same molecule, at Nox1, the “inhibition of Nox1” value was “effective inhibitor”. In data set [1], the “decomposition temperature (thermal stability)” value worked out at 200 °C. Also, the neuroprotective potential entry in the data set on dopaminergic neurons was “high neuroprotective potential”. The solubility was found to be 8 ± 1 µg/mL in data set [2] (aqueous buffer, PBS, read-out: solubility in PBS) and 11 ± 2 µg/mL in data set [2] (water, read-out: solubility in water).
